Reference: patent US20150111934A1, “CRYSTALLINE FORMS OF AN ADRENERGIC AGONIST” (DIPHARMA FRANCIS S.R.L., priority 2013, published 2015)

Assays:
[1] = cited from earlier work; for physical stability of the crystalline form: prior art forms of U.S. Pat. No. 7,342,117
physchem = conditions: 25 °C, water

solubility in water (in words) (solubility in water) | SMILES | physical stability of the crystalline form [1] | also measured
 | Cl.Cl.Nc1nc(CC(=O)Nc2ccc(CCNCC(O)c3ccccc3)cc2)cs1 (stereo not drawn) |  | hygroscopicity and stability of the crystalline salt ([1]; as demonstrated in U.S. Pat. No. 7,342,117): highly hygroscopic and unstable
practically insoluble in water | Nc1nc(CC(=O)Nc2ccc(CCNC[C@H](O)c3ccccc3)cc2)cs1 [Crystalline form α of Mirabegron, (R)-2-(2-Aminothiazol-4-yl)-4′-[2-[(2-hydroxy-2-phenylethyl)amino]ethyl]acetanilide] | stable solid form | 
 | CC(=O)O.Nc1nc(CC(=O)Nc2ccc(CCNC[C@H](O)c3ccccc3)cc2)cs1 [Mirabegron acetate salt, 2-(2-amino-1,3-thiazol-4-yl)-N-[4-(2-{[(2R)-2-hydroxy-2-phenylethyl]amino}ethyl)phenyl]acetamide acetate salt] |  | solubility (physchem): ~100 mg/mL
almost wholly insoluble in water | Nc1nc(CC(=O)Nc2ccc(CCNC[C@H](O)c3ccccc3)cc2)cs1 [Mirabegron base, (R)-2-(2-Aminothiazol-4-yl)-4′-[2-[(2-hydroxy-2-phenylethyl)amino]ethyl]acetanilide] |  | 
 | Nc1nc(CC(=O)Nc2ccc(CCNC[C@H](O)c3ccccc3)cc2)cs1 [form β, (R)-2-(2-Aminothiazol-4-yl)-4′-[2-[(2-hydroxy-2-phenylethyl)amino]ethyl]acetanilide] | metastable polymorph | 
